# Assay results as given in PubChem BioAssay (NCI).
#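 Test compounds were applied to cells in 96-well plates for 48 hours at 5 doses. GI50 is the concentration that inhibits growth by half. TGI: concentration producing complete growth inhibition.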
# Assays:
# Experiment in all cases: NCI anticancer screen, dose series, 48 h
# 786-0 renal = system: 786-0 renal
# A498 renal = system: A498 renal
# A549 NSCLC = system: A549 NSCLC
# ACHN renal = system: ACHN renal
# BT-549 breast = system: BT-549 breast
# CAKI-1 renal = system: CAKI-1 renal
# CCRF-CEM leukemia = system: CCRF-CEM leukemia
# COLO 205 colon = system: COLO 205 colon
# DU-145 prostate = system: DU-145 prostate
# EKVX NSCLC = system: EKVX NSCLC
# HCC-2998 colon = system: HCC-2998 colon
# HCT-116 colon = system: HCT-116 colon
# HCT-15 colon = system: HCT-15 colon
# HL-60(TB) leukemia = system: HL-60(TB) leukemia
# HOP-62 NSCLC = system: HOP-62 NSCLC
# HOP-92 NSCLC = system: HOP-92 NSCLC
# HS 578T breast = system: HS 578T breast
# HT29 colon = system: HT29 colon
# IGROV1 ovarian = system: IGROV1 ovarian
# K-562 leukemia = system: K-562 leukemia
# KM12 colon = system: KM12 colon
# LOX IMVI melanoma = system: LOX IMVI melanoma
# M14 melanoma = system: M14 melanoma
# MALME-3M melanoma = system: MALME-3M melanoma
# MCF7 breast = system: MCF7 breast
# MDA-MB-231 breast = system: MDA-MB-231 breast
# MDA-MB-435 = system: MDA-MB-435
# MDA-MB-468 breast = system: MDA-MB-468 breast
# MOLT-4 leukemia = system: MOLT-4 leukemia
# NCI-H226 lung = system: NCI-H226 lung
# NCI-H23 lung = system: NCI-H23 lung
# NCI-H460 lung = system: NCI-H460 lung
# NCI-H522 lung = system: NCI-H522 lung
# NCI/ADR-RES ovarian = system: NCI/ADR-RES ovarian
# OVCAR-3 ovarian = system: OVCAR-3 ovarian
# OVCAR-4 ovarian = system: OVCAR-4 ovarian
# OVCAR-5 ovarian = system: OVCAR-5 ovarian
# OVCAR-8 ovarian = system: OVCAR-8 ovarian
# PC-3 prostate = system: PC-3 prostate
# RPMI-8226 leukemia = system: RPMI-8226 leukemia
# RXF 393 renal = system: RXF 393 renal
# SF-268 CNS = system: SF-268 CNS
# SF-295 CNS = system: SF-295 CNS
# SF-539 CNS = system: SF-539 CNS
# SK-MEL-2 melanoma = system: SK-MEL-2 melanoma
# SK-MEL-28 melanoma = system: SK-MEL-28 melanoma
# SK-MEL-5 melanoma = system: SK-MEL-5 melanoma
# SK-OV-3 ovarian = system: SK-OV-3 ovarian
# SN12C renal = system: SN12C renal
# SNB-19 CNS = system: SNB-19 CNS
# SNB-75 CNS = system: SNB-75 CNS
# SR leukemia = system: SR leukemia
# SW-620 colon = system: SW-620 colon
# T-47D breast = system: T-47D breast
# TK-10 renal = system: TK-10 renal
# U251 CNS = system: U251 CNS
# UACC-257 melanoma = system: UACC-257 melanoma
# UACC-62 melanoma = system: UACC-62 melanoma
# UO-31 renal = system: UO-31 renal
structure (smiles),measurement,setting,value
Nc1ccc(-c2ccc3ncnc(N4CCc5cc(F)c(Cl)cc54)c3c2)cn1,GI50,786-0 renal,1.82 µM
same,TGI,786-0 renal,14.7 µM
same,GI50,A498 renal,0.185 µM
same,TGI,A498 renal,2.56 µM
same,GI50,A549 NSCLC,1.55 µM
same,TGI,A549 NSCLC,15.3 µM
same,GI50,ACHN renal,0.739 µM
same,TGI,ACHN renal,12.9 µM
same,GI50,BT-549 breast,1.35 µM
same,TGI,BT-549 breast,8.24 µM
same,GI50,CAKI-1 renal,1.11 µM
same,TGI,CAKI-1 renal,12.7 µM
same,GI50,CCRF-CEM leukemia,3.31 µM
same,TGI,CCRF-CEM leukemia,26.2 µM
same,GI50,COLO 205 colon,5.58 µM
same,TGI,COLO 205 colon,21.2 µM
same,GI50,DU-145 prostate,1.61 µM
same,TGI,DU-145 prostate,15.8 µM
same,GI50,EKVX NSCLC,1.26 µM
same,TGI,EKVX NSCLC,13.8 µM
same,GI50,HCC-2998 colon,4.3 µM
same,TGI,HCC-2998 colon,66.1 µM
same,GI50,HCT-116 colon,3.91 µM
same,TGI,HCT-116 colon,28.3 µM
same,GI50,HCT-15 colon,3.49 µM
same,TGI,HCT-15 colon,30.3 µM
same,GI50,HL-60(TB) leukemia,2.61 µM
same,TGI,HL-60(TB) leukemia,20.8 µM
same,GI50,HOP-62 NSCLC,1.5 µM
same,TGI,HOP-62 NSCLC,27.3 µM
same,GI50,HOP-92 NSCLC,2.37 µM
same,TGI,HOP-92 NSCLC,20.7 µM
same,GI50,HS 578T breast,1.14 µM
same,TGI,HS 578T breast,4.6 µM
same,GI50,HT29 colon,3.26 µM
same,TGI,HT29 colon,23 µM
same,GI50,IGROV1 ovarian,0.639 µM
same,TGI,IGROV1 ovarian,2.88 µM
same,GI50,K-562 leukemia,6.24 µM
same,TGI,K-562 leukemia,> 100 µM
same,GI50,KM12 colon,6.73 µM
same,TGI,KM12 colon,75.5 µM
same,GI50,LOX IMVI melanoma,3.31 µM
same,TGI,LOX IMVI melanoma,24.6 µM
same,GI50,M14 melanoma,3.69 µM
same,TGI,M14 melanoma,18 µM
same,GI50,MALME-3M melanoma,1.57 µM
same,TGI,MALME-3M melanoma,10.1 µM
same,GI50,MCF7 breast,1.77 µM
same,TGI,MCF7 breast,12.8 µM
same,GI50,MDA-MB-231 breast,2.84 µM
same,TGI,MDA-MB-231 breast,15.2 µM
same,GI50,MDA-MB-435,3.67 µM
same,TGI,MDA-MB-435,16.9 µM
same,GI50,MDA-MB-468 breast,0.657 µM
same,TGI,MDA-MB-468 breast,2.31 µM
same,GI50,MOLT-4 leukemia,2.68 µM
same,TGI,MOLT-4 leukemia,8.4 µM
same,GI50,NCI-H226 lung,1.59 µM
same,TGI,NCI-H226 lung,40.8 µM
same,GI50,NCI-H23 lung,5.26 µM
same,TGI,NCI-H23 lung,> 100 µM
same,GI50,NCI-H460 lung,2.73 µM
same,TGI,NCI-H460 lung,15.8 µM
same,GI50,NCI-H522 lung,2.37 µM
same,TGI,NCI-H522 lung,19.4 µM
same,GI50,NCI/ADR-RES ovarian,3.2 µM
same,TGI,NCI/ADR-RES ovarian,35.5 µM
same,GI50,OVCAR-3 ovarian,1.35 µM
same,TGI,OVCAR-3 ovarian,12.3 µM
same,GI50,OVCAR-4 ovarian,3.11 µM
same,TGI,OVCAR-4 ovarian,18.8 µM
same,GI50,OVCAR-5 ovarian,2.32 µM
same,TGI,OVCAR-5 ovarian,> 100 µM
same,GI50,OVCAR-8 ovarian,4.31 µM
same,TGI,OVCAR-8 ovarian,> 100 µM
same,GI50,PC-3 prostate,2.3 µM
same,TGI,PC-3 prostate,27 µM
same,GI50,RPMI-8226 leukemia,3.51 µM
same,TGI,RPMI-8226 leukemia,70.1 µM
same,GI50,RXF 393 renal,1.14 µM
same,TGI,RXF 393 renal,5.22 µM
same,GI50,SF-268 CNS,2.2 µM
same,TGI,SF-268 CNS,50.2 µM
same,GI50,SF-295 CNS,2.39 µM
same,TGI,SF-295 CNS,16 µM
same,GI50,SF-539 CNS,2.83 µM
same,TGI,SF-539 CNS,13.3 µM
same,GI50,SK-MEL-2 melanoma,5.55 µM
same,TGI,SK-MEL-2 melanoma,44.6 µM
same,GI50,SK-MEL-28 melanoma,2.76 µM
same,TGI,SK-MEL-28 melanoma,15.3 µM
same,GI50,SK-MEL-5 melanoma,3.07 µM
same,TGI,SK-MEL-5 melanoma,14.4 µM
same,GI50,SK-OV-3 ovarian,2.18 µM
same,TGI,SK-OV-3 ovarian,7.09 µM
same,GI50,SN12C renal,2.11 µM
same,TGI,SN12C renal,> 100 µM
same,GI50,SNB-19 CNS,2.86 µM
same,TGI,SNB-19 CNS,47.8 µM
same,GI50,SNB-75 CNS,0.545 µM
same,TGI,SNB-75 CNS,4.21 µM
same,GI50,SR leukemia,3.24 µM
same,TGI,SR leukemia,> 100 µM
same,GI50,SW-620 colon,5.96 µM
same,TGI,SW-620 colon,27.5 µM
same,GI50,T-47D breast,0.895 µM
same,TGI,T-47D breast,10.2 µM
same,GI50,TK-10 renal,0.504 µM
same,TGI,TK-10 renal,9.78 µM
same,GI50,U251 CNS,3.3 µM
same,TGI,U251 CNS,24.6 µM
same,GI50,UACC-257 melanoma,5.76 µM
same,TGI,UACC-257 melanoma,23.1 µM
same,GI50,UACC-62 melanoma,1.91 µM
same,TGI,UACC-62 melanoma,14.6 µM
same,GI50,UO-31 renal,0.823 µM
same,TGI,UO-31 renal,14.5 µM
